Literature values in patent US20170151174A1, “MAGNETOENZYMATIC CARRIER SYSTEM FOR IMAGING AND TARGETED DELIVERY AND RELEASE OF ACTIVE AGENTS” (priority 2014, published 2017).

Tested on: colon HT-29 cancer cells
Details: SMase activity of 0.5 U/ml

Substance: sphingomyelinase [SMase]
- cell death: 80%
